Assay results: patent US20190127381A1, “SUBSTITUTED FUSED PYRIMIDINONE COMPOUNDS” (TORRENT PHARMACEUTICALS LIMITED, priority 2016, published 2019)

What was measured:
[1] = target: T1, purified recombinant human PI3K enzyme δ (Homo sapiens, UniProt O00329); assay: Inhibition of PI3-Kinase enzymatic activity (HTRF enzyme assay), δ; type: biochemical; conditions: 1 μM compound; PI3K δ 50 ng/well; PIP2 10 μM; ATP 200 μM; read-out: Percentage inhibition of PI3K activity, δ
T1 construct: purchased Invitrogen, USA
T1 sequence (O00329 whole entry): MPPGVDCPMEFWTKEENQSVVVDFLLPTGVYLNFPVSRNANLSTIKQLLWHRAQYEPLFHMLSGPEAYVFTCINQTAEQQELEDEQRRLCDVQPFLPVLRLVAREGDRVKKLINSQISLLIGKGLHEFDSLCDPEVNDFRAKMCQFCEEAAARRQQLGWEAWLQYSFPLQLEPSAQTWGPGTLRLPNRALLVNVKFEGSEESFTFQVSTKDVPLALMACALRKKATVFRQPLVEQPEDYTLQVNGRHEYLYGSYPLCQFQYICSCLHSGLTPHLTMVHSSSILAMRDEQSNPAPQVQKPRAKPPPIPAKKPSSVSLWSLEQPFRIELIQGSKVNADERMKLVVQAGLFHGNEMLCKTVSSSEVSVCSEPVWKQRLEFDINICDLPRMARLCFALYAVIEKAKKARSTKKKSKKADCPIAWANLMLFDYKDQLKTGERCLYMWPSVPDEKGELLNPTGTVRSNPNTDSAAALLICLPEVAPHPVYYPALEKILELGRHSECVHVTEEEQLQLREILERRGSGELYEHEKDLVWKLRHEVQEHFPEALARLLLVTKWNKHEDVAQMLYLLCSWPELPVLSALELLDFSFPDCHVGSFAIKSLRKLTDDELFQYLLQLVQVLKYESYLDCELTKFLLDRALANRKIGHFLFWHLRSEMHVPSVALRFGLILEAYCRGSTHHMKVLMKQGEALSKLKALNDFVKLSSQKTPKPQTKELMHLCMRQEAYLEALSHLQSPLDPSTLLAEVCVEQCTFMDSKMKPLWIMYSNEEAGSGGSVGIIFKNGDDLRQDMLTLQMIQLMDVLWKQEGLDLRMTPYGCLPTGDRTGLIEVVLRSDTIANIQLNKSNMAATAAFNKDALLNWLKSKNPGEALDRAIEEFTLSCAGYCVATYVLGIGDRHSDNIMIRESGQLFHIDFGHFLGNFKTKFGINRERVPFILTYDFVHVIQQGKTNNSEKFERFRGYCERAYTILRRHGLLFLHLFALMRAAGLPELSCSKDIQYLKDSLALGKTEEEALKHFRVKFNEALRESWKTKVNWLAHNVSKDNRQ
T1 sequence (P27986 whole entry partner): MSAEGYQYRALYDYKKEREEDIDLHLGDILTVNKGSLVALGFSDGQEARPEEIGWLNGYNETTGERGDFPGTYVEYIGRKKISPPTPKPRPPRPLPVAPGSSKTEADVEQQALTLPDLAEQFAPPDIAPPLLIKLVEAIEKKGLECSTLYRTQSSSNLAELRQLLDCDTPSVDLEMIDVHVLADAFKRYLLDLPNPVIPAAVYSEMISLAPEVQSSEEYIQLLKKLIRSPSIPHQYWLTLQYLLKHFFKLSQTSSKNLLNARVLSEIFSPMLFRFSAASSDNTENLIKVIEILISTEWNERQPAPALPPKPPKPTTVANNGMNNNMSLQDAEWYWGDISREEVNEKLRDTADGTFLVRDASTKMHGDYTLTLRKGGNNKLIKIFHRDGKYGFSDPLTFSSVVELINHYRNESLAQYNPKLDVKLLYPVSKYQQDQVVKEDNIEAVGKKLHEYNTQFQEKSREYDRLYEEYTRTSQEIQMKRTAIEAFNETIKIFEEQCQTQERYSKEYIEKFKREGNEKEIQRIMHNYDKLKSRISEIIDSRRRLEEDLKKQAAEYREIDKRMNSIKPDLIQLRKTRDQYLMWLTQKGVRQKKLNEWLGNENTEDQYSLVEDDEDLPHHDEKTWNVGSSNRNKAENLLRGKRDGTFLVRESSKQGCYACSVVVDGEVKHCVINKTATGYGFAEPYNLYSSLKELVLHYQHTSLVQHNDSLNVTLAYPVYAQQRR
In short: (§1)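 HTRF assay with compound at 1 μM (1.0% DMSO), recombinant human PI3Kδ (50 ng/well) or γ (100 ng/well) and PIP2 (10 μM), preincubated 15 min at room temperature. ATP (δ 200 μM, γ 50 μM) was then added for 30 min at room temperature. Percent inhibition was derived from the 665/615 nm signal ratio.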

[2] = target: T2, purified recombinant human PI3K enzyme γ (Homo sapiens, UniProt P48736); assay: Inhibition of PI3-Kinase enzymatic activity (HTRF enzyme assay), γ; type: biochemical; conditions: 1 μM compound; PI3K γ 100 ng/well; PIP2 10 μM; ATP 50 μM; read-out: Percentage inhibition of PI3K activity, γ
T2 construct: purchased Invitrogen, USA
T2 sequence (P48736 whole entry): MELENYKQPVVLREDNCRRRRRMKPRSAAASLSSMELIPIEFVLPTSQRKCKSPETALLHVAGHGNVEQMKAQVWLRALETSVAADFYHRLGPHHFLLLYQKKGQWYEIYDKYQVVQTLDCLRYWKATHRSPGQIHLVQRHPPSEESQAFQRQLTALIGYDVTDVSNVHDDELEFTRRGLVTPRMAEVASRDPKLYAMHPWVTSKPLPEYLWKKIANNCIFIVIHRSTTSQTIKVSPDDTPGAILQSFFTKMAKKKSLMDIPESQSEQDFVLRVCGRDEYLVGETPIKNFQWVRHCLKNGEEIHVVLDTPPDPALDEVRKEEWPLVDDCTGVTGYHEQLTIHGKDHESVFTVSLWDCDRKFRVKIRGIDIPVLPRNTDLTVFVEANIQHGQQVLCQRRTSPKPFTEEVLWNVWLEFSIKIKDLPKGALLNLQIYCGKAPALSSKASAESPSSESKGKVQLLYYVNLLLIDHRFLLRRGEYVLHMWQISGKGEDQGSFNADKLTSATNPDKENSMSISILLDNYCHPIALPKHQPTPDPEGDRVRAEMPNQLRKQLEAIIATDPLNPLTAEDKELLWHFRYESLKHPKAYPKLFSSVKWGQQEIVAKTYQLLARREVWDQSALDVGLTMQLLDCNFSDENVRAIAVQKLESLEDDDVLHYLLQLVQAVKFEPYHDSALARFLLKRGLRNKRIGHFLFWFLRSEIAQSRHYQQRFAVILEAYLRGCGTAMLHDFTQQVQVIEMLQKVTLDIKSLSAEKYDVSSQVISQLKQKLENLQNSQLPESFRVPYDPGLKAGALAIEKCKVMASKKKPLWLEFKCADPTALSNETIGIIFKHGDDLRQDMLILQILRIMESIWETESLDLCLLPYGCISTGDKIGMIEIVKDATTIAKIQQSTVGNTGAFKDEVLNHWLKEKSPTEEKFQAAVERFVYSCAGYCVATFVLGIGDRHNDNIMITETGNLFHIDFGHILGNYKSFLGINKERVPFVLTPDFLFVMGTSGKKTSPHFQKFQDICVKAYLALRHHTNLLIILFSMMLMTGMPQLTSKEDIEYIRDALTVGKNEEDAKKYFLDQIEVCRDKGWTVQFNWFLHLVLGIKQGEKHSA
In short: as §1

[3] = system: cigarette smoke induced Neutrophil accumulation in BAL Fluid; assay: Acute guinea pig model of airway inflammation (tobacco smoke, COPD); type: in vivo; conditions: for % Inhibition of neutrophil against vehicle group: exposure 56 minutes; for Neutrophil (*10^6 cells/animal) in BAL fluid: whole body aerosol exposure 56 minutes, day 6 to day 11, Mean ± SEM
Excerpt: The tobacco smoke induced airway inflammation model is used for in vivo efficacy of compound. Many investigators have used acute tobacco smoke (TS) exposure in rodents as models of airway inflammation for quick screening of anti-inflammatory therapies for COPD (J Pharmacol Exp Ther. 2008; 324(3):921-9; J Pharmacol Exp Ther. 2010; 332(3):764-75; Journal of Inflammation 2013, 10(Suppl 1):31 and Eur Respir J Suppl 2006; 663s:3850). Given its position as predominant cause of COPD, animal models using TS exposure would appear to be the logical choice for investigation (Respir Res. 2004; 2;5:18).
Guinea pigs were exposed to tobacco smoke (TS) in an acrylic chamber. Animals were exposed to TS from 5, 10, 15 cigarettes on day 1, day 2, day 3 respectively. From day 4 onwards till day 11, animals were exposed to TS from 15 cigarettes per day. On 11 days of exposure of guinea pig to TS, significant inflammatory cell recruitment, predominantly neutrophils, to lungs was observed as compared to air exposed control guinea pig (BALF neutrophil levels, 0.59±0.15*10^6 cells/animal in air control group vs 8.3±1.4*10^6cells/animal in smoke exposed vehicle group)
Lung delivery of test compound was achieved by whole body aerosol exposure using nebulizer for 56 minutes in a chamber. Guinea pig were divided in different dose groups and exposed in a chamber for 56 minutes with vehicle or Compound No. 39 (1 mg/ml or 3 mg/ml). A total quantity of 6.0 ml of either vehicle or test compound formulation was nebulized in chambers to respective groups over 56 mins period. Test compound was administered 2 hr prior to TS exposure from day 6 to day 11. Bronchoalveolar lavage (BAL) was performed 24 hr post last TS exposure.
Trachea of animal was cannulated using catheter. Phosphate Buffer Saline (PBS) was used as lavage fluid. A volume of 5.0 ml was gently instilled and withdrawn and collected in microcentrifuge tube placed on ice. This procedure was repeated further 5 times.
(§2) Lavage fluid was separated from cells by centrifugation and supernatant separated. The cell pallet was resuspended in known volume of PBS. Cells in aliquot were stained using Turk solution and total cell numbers were calculated by counting Turk stained aliquot under microscope using haemocytometer.
The residual cell suspension was resuspended and slides prepared using cyto centrifuge technique (Cytospin 4, Thermo Shandon). […] Up to 300 cells were counted and differentiated using standard morphometric techniques under light microscopy.
All results are presented at individual data for each animal and mean value calculated for each group. Percentage inhibition for the neutrophil was calculated for Compound No 39 treatment group against vehicle group.

[4] = system: OVA induced pulmonary inflammatory cell accumulation in BAL fluid; assay: Ovalbumin (OVA) model of airway inflammation (asthma) in mice; type: in vivo; conditions: OVA challenge
Experimental: Allergen chicken egg ovalbumin (OVA) model, which shares features similar to human allergic asthma, including the presence of eosinophilic and lymphocytic lung inflammation, is frequently used for model for asthma. Ovalbumin is an inert protein that is not intrinsically immunogenic and therefore needs to be injected systemically in the presence of an adjuvant, typically aluminum hydroxide (alum), to induce Th2-driven response in mice (Curr. Protoc. Mouse Biol. 6:169-184, 2016).
Ovalbumin (20 μg) (OVA, Sigma Aldrich, St. Louis, Mo.), emulsified with inject alum (1 mg, 0.2 mL) was administered in mice intraperitoneally (i.p.) on days 1 and 14 for sensitization, and then challenged with OVA (0.5% w/v) exposure for 30 minutess using nebulizer on days 21, 22 and 23 in Compound no 44 treated and vehicle control animals. Saline control mice received normal saline as sensitization and challenge dose in similar fashion.
Lung delivery of compound of present invention was achieved by whole body aerosol exposure using nebulizer for 25 minutes in a chamber. Mice were divided in different dose groups and exposed in a chamber for 25 minutes with vehicle or Compound no 44 (1 mg/ml or 3 mg/ml). Test compound/vehicle was administered once daily for 5 days starting from day 20 till day 24. On each challenge day treatment was administered 2 hr before OVA challenge. Bronchoalveolar lavage (BAL) was performed 48 hr post last OVA exposure (i.e. on day 25).
Trachea of animal was cannulated using catheter. Phosphate Buffer Saline (PBS) was used as lavage fluid. A volume of 0.5 ml was gently instilled and withdrawn and collected in microcentrifuge tube placed on ice. This procedure was repeated further 3 times.
as §2
The residual cell suspension was resuspended with PBS and slides prepared using cyto centrifuge technique (Cytospin 4, Thermo Shandon). The slides were then fixed with methanol, air dried and stained with May Grunwald Giemsa stain. Up to 300 cells were counted and differentiated using standard morphometric techniques under light microscopy.
All results are presented at individual data for each animal and mean value calculated for each group. Percentage inhibition for each cell type is calculated as below.
% inhibition=[(Vehicle treatment−Drug treatment)/(Vehicle treatment−Saline treatment)]*100

[5] = 1 mg/ml nebulized 25 minutes once daily for 5 days
[6] = 3 mg/ml nebulized 25 minutes once daily for 5 days

| Structure (SMILES) | inhibition at 1 µM [1] | inhibition at 1 µM [2] | % Inhibition of neutrophil against vehicle group ([3]; 1 mg/ml nebulized) | Neutrophil (*10^6 cells/animal) in BAL fluid ([3]; 1 mg/ml nebulized) | % Inhibition of neutrophil against vehicle group ([3]; 3 mg/ml nebulized) | Neutrophil (*10^6 cells/animal) in BAL fluid ([3]; 3 mg/ml nebulized) | reduced eosinophil influx (% inhibition) in BAL fluid [4, 5] | reduced lymphocyte influx (% inhibition) in BAL fluid [4, 5] | reduced eosinophil influx (% inhibition) in BAL fluid [4, 6] | reduced lymphocyte influx (% inhibition) in BAL fluid [4, 6] |
| --- | --- | --- | --- | --- | --- | --- | --- | --- | --- | --- |
| Cc1cccc2nc(Cn3nc(-c4ccc(O)c5c4CC(C)(C)O5)c4c(N)ncnc43)n(-n3c(C)ccc3C)c(=O)c12 [Compound No. 39, 2-{[4-amino-3-(7-hydroxy-2,2-dimethyl-2,3-dihydro-1-benzofuran-4-yl)-1H-pyrazolo[3,4-d]pyrimidin-1-yl]methyl}-3-(2,5-dimethyl-1H-pyrrol-1-yl)-5-methylquinazolin-4(3H)-one] | 80 to 100% | 80 to 100% | 22% | 6.5 ± 3.2 *10^6 cells/animal | 68% | 2.7 ± 1.4 *10^6 cells/animal |  |  |  |  |
| Cn1cc(-c2cccc3nc(Cn4nc(-c5ccc(O)c6c5CC(C)(C)O6)c5c(N)ncnc54)n(-n4cccc4)c(=O)c23)cn1 [Compound No. 44, 2-{[4-amino-3-(7-hydroxy-2,2-dimethyl-2,3-dihydro-1-benzofuran-4-yl)-1H-pyrazolo[3,4-d]pyrimidin-1-yl]methyl}-5-(1-methyl-1H-pyrazol-4-yl)-3-(1H-pyrrol-1-yl)quinazolin-4(3H)-one] | 80 to 100% | 80 to 100% |  |  |  |  | 42% | 27% | 56% | 39% |
